Measurements as given in US9468209B2, “Method for eradicating weeds with derivatives of 3-acetyl-5-sec-butyl-4-hydroxy-3-pyrrolin-2-one” (priority 2012, dated 2016).

Experiments:
[1] = test system: Crofton weed; assay: Needle puncture test on Crofton weed with washes recovered from compound-treated soil; assay type: in vivo; conditions: after soil treatment (3 hours)
Procedure: Compounds 1, 2, 3, and 40 were dissolved in small amount of methanol and diluted with distilled water to concentration of 50 μg/mL. The solution was sprayed to the soil sample until the soil was wet but not overflows. After standing at room temperature for 3 hours, the soil sample was washed with water and methanol. The wash solution was collected and concentrated. Such process was repeated three times. The concentrated solutions were used for herbicidal activity test using the method of needle puncture on Crofton weed. Methanol water solution and pure water were used as control. The experiment for every sample was repeated six times. The spot diameters were measured with vernier caliper after the plant was kept under natural light at 25° C. for 24 hours (Table 11).

[2] = test system: Hill reaction; assay: Hill reaction activity of treated Crofton weed leaves; assay type: biochemical; conditions: 50 μg/mL, strong light 12 hours
Procedure: (§1) Compounds 10-57 were dissolved in small amount of methanol. The solutions were then diluted with distilled water to a concentration of 50 μg/mL. A mixture of methanol and water in the same ratio as the sample solution was also prepared and used as control in the experiment. The healthy leaves of Crofton weed were washed in water for 30 minutes and then rinsed with distilled water. The clean and tissue dried leaves were placed in petri dish with the back-side of the leaves facing up. Wet filter paper was also placed in the in petri dish for moisture control. Water, methanol and chemical solutions of the analogues were applied to the back-side of each leaf. Test sample was then placed in vacuum chamber at 25° C. for 15 min followed by exposure to the strong light (400 μM m^−2 s^−1) for 12 hours. The leaf sample went through a series of test, and the Hill reaction rate, the electron transfer activity and fluorescence of chlorophyll were measured. Four leaves were used for each treatment and each test was repeated three times.

[3] = test system: Crofton weed; assay: Spray on leaves and stems of three-leaf-stage Crofton weed seedlings grown in pots in a greenhouse; assay type: in vivo; parameters: key: 4: Plant completely dead; 3: Two thirds of the plant stems and leaves dried out; 2: Half of the plant stems and leaves dried out; 1: One third of the plant stems and leaves dried out; 0: No damage at all; conditions: 50 μg/mL spray, assessed two days later
Procedure: Compounds 1, 2, 3, and 40 were separately dissolved in a small amount of methanol. The solutions were then diluted with distilled water to a concentration of 50 μg/mL. A mixture of methanol and water in the same ratio as the sample solution was also prepared and used as control in the experiment. The solutions were sprayed on leaves and stems of three-leaf-stage Crofton weed seedlings. All the plants were grown in pot in a greenhouse. The leaves were properly wet by the solutions for consistency and the treatment was repeated 3 times. The measurement of the plant damage was calculated by the formula: Damage Index=Σ(damage level×number of plants)×100/4/number of plants in each treatment.

[4] = test system: Crofton weed; assay: Needle puncture pathogenic test on slightly wounded leaf of Crofton weed; assay type: in vivo; conditions: Crofton weed leaf; for Avg. diameter of the spot after 24 h / Time of disease spot to occur: analogs with formula (I) and (II); for Time of Disease spot / Average diameter of spot after 24 h: 50 μg/mL, 25° C., natural light
Procedure: 3-acetyl-5-sec-butyl-4-hydroxy-3-pyrrolin-2-one analogs were dissolved in a small amount of methanol and diluted with water to a concentration of 5-100 μg/g. A pathogenic test was conducted by placing the toxic liquid on the slightly wounded leaf of Crofton weed with a needle. The test has shown that the pathogenic capability of 3-acetyl-5-sec-butyl-4-hydroxy-3-pyrrolin-2-one analogs with respect to Crofton weed increases with the increase of concentration. The spot diameter caused on the leaf of Crofton weed after 24 hours was 2 mm at 50 μg/g.
3-acetyl-5-sec-butyl-4-hydroxy-3-pyrrolin-2-one analogue (Table 3, compounds 10-57) was dissolved in small amount of methanol. The solution was then diluted with distilled water to a concentration of 50 μg/mL. Methanol solution with same concentration and pure distilled water were used as control of the experiment. A pathogenic test was conducted by placing the toxic liquid on the slightly wounded leaf of Crofton weed with a needle. The experiment was carried out at 25° C. under the natural light and each test was repeated 6 times. It was measure the diameter of the spot after 24 h. […] The size of the side chain also has an effect on their activity.
Fourteen salts of 3-acetyl-5-sec-butyl-4-hydroxy-3-pyrrolin-2-one analogs were dissolved in small amount of methanol and diluted with distilled water to a concentration of 50 μg/mL. Methanol/water mixture was also prepared and used as control. Needle puncture method was used for the test on the small pieces of Crofton weed. Each treatment was repeated six times or more. The test samples were kept under natural light at 25° C. for 24 hours. The diameters of damaged spot of the plant leaves were measured by vernier caliper.

[5] = test system: fluorescence of chlorophyll; assay: Fluorescence of chlorophyll of treated Crofton weed leaves; assay type: biochemical; conditions: 50 μg/mL, strong light 12 hours
Procedure: as §1

[6] = test system: photosystem II; assay: PSII oxygen evolution / electron transfer activity of treated Crofton weed leaves; assay type: biochemical; conditions: 50 μg/mL, strong light 12 hours
Procedure: as §1

Structure (SMILES)	Average diameter of the spot after 24 h, H2O wash [1] [mm]	Average diameter of the spot after 24 h, Methanol wash [1] [mm]	Activity of Hill Reaction [2] [uMO2/mgChlh]	Damage level [3]	Avg. diameter of the spot after 24 h [4] [mm]	Time of disease spot to occur [4] [h]	Fv/Fm [5]	PSII Activity of oxygen evolution [6] [uMO2/mgChlh]	Time of Disease spot [4] [h]	Average diameter of spot after 24 h [4] [mm]
CCC(C)C1NC(=O)CC1=O (stereo not drawn) [Compound 1]	0.223 ± 0.077	0.292 ± 0.041	98.76	2	1.97 ± 0.04	22.3 ± 0.77	0.82	50.89	–	–
CCCC(Cl)C1NC(=O)CC1=O (stereo not drawn) [Compound 2]	0.280 ± 0.030	0.362 ± 0.012	69.41	2	2.96 ± 0.01	22.0 ± 2.30	0.84	37.02	–	–
CCC(C)C1NC(=O)C=C1O (stereo not drawn) [Compound 3]	0.273 ± 0.062	0.334 ± 0.082	62.21	1	2.31 ± 0.09	20.9 ± 1.01	0.83	32.14	–	–
CCC1(CC)NC(=O)C(C(C)=O)=C1O [Compound 23]	–	–	63.28	–	–	–	0.79	38.24	18.3 ± 2.17	2.23 ± 0.12
CCC1(C)NC(=O)C(C(C)=O)=C1O (stereo not drawn) [Compound 24]	–	–	71.37	–	–	–	0.83	43.01	16.21 ± 3.55	2.43 ± 0.07
CCCC1(CCC)NC(=O)C(C(C)=O)=C1O [Compound 25]	–	–	97.55	–	–	–	0.82	57.12	15.22 ± 2.00	2.44 ± 0.10
CCCC1(C)NC(=O)C(C(C)=O)=C1O (stereo not drawn) [Compound 26]	–	–	89.15	–	–	–	0.82	58.01	13.61 ± 1.35	3.31 ± 0.07
CCCC1(CC)NC(=O)C(C(C)=O)=C1O (stereo not drawn) [Compound 27]	–	–	91.45	–	–	–	0.81	53.24	14.2 ± 4.15	3.18 ± 0.93
CCCCC1(CCCC)NC(=O)C(C(C)=O)=C1O [Compound 28]	–	–	75.03	–	–	–	0.82	31.76	16.9 ± 2.25	2.40 ± 0.11
CCCCC1(CC)NC(=O)C(C(C)=O)=C1O (stereo not drawn) [Compound 30]	–	–	47.33	–	–	–	0.79	22.78	13.3 ± 2.00	4.53 ± 1.03
CCC(C)(C)C1NC(=O)C(C(C)=O)=C1O (stereo not drawn) [Compound 32]	–	–	63.42	–	–	–	0.82	32.13	12.5 ± 3.75	4.82 ± 1.44
CC(=O)C1=C(O)C(CCC(C)C)NC1=O (stereo not drawn) [Compound 33]	–	–	51.94	–	–	–	0.79	26.54	13.5 ± 0.75	4.17 ± 1.15
CC(=O)C1=C(O)C(CC(=O)O)NC1=O (stereo not drawn) [Compound 34]	–	–	65.73	–	–	–	0.81	35.11	24.0 ± 0.02	1 ± 0.86
CCCC(C#N)C1NC(=O)C(C(C)=O)=C1O (stereo not drawn) [Compound 38]	–	–	64.69	–	–	–	0.81	40.41	13.6 ± 0.50	9.82 ± 0.02
CC(=O)C1=C(O)C(C(C)C)NC1=O (stereo not drawn) [Compound 39]	–	–	62.72	–	–	–	0.80	33.79	16.5 ± 2.15	4.89 ± 0.37
CSCCC1NC(=O)C(C(C)=O)=C1O (stereo not drawn) [Compound 41]	–	–	59.07	–	–	–	0.83	41.32	20.8 ± 3.00	2.45 ± 0.24
CCC(C)C1NC(=O)C(C(=O)CCCl)=C1O (stereo not drawn) [Compound 43]	–	–	63.35	–	–	–	0.83	47.80	20.1 ± 1.15	2.30 ± 0.28
CCOCCC(=O)C1=C(O)C(C(C)CC)NC1=O (stereo not drawn) [Compound 45]	–	–	41.00	–	–	–	0.79	27.04	20.3 ± 0.57	2.73 ± 0.73
CCC(C)C1NC(=O)C(C(=O)OCCc2ccccc2)=C1O (stereo not drawn) [Compound 46]	–	–	58.78	–	–	–	0.82	43.67	22.1 ± 1.35	2.31 ± 0.44
CCC(C)C1NC(=O)C(C(=O)CCOc2ccccc2)=C1O (stereo not drawn) [Compound 47]	–	–	67.99	–	–	–	0.82	49.01	21.2 ± 1.88	2.12 ± 0.09
CCC(C)C1NC(=O)C(C(=O)Cc2ccccc2)=C1O (stereo not drawn) [Compound 51]	–	–	52.23	–	–	–	0.81	32.15	15.1 ± 1.82	3.28 ± 1.12
CCC(C)C1NC(=O)C(C(=O)Cc2ccc([N+](=O)[O-])cc2)=C1O (stereo not drawn) [Compound 52]	–	–	53.13	–	–	–	0.82	36.86	15.3 ± 1.72	3.83 ± 1.03
CCCCCC(C#N)C1NC(=O)C(=C(C)O)C1=O (stereo not drawn) [Compound 54]	–	–	43.65	–	–	–	0.81	31.98	11.30 ± 0.73	8.211 ± 0.101
CC(=O)C1C(=O)NC(C)C1=O (stereo not drawn) [Compound 57]	–	–	63.42	–	–	–	0.82	35.13	20.4 ± 0	1.98 ± 0.51
